Results reported in patent publication US12622881B2, “Water-soluble topical ophthalmic preparation containing lutein and production method thereof” (Omisan Farmaceutici S.R.L., priority 2021, dated 2026).

Assay: Preliminary tests: lutein added to an aqueous solution under stirring
Type: physicochemical
Conditions: even under strong and prolonged stirring
Source text: As noted, lutein, being a lipophilic molecule, is insoluble in water.

Structure (SMILES): CC1=C[C@H](O)CC(C)(C)C1/C=C/C(C)=C/C=C/C(C)=C/C=C/C=C(C)/C=C/C=C(C)/C=C/C1=C(C)C[C@@H](O)CC1(C)C (stereo partly drawn) [lutein, β, ε-caroten-3,3′-diol]
- behaviour of lutein in aqueous solution (solubility): for the most part deposits rapidly on the bottom
